Data: the NIST ThermoML archive (doi:10.1016/j.jct.2007.04.006)

Tests used:
[1] = 101.33 kPa, Liquid; for speed of sound: Sing-around technique in a fixed-path interferometer
[2] = mn = molality of the nth substance listed, in mol/kg; settings: 298.15 K, 101 kPa, Liquid; for speed of sound: Sing-around technique in a fixed-path interferometer

CCO [ethanol]
[1], 298.15 K
Settings | mass density [kg/m3] | speed of sound [m/s]
– | 785.125 | 1143.4

CO [methanol]
[1], 298.15 K
Settings | mass density [kg/m3] | speed of sound [m/s]
– | 786.71 | 1108.5

[Br-].[Li+] [lithium bromide] + CC#N
[2]
Settings | mass density [kg/m3] | speed of sound [m/s]
m1 = 0.0209 | 778.135 | 1279.8
m1 = 0.0302 | 778.802 | 1280.1
m1 = 0.0403 | 779.512 | 1280.4
m1 = 0.0478 | 780.04 | 1280.6
m1 = 0.07 | 781.58 | 1281.3
m1 = 0.0799 | 782.247 | 1281.6
m1 = 0.0904 | 782.95 | 1281.9
m1 = 0.0986 | 783.518 | 1282.1
m1 = 0.1212 | 784.97 | 1282.8
m1 = 0.1506 | 786.812 | 1283.7
m1 = 0.1985 | 789.96 | 1285
m1 = 0.2498 | 793.354 | 1286.4
m1 = 0.2981 | 796.544 | 1287.7
m1 = 0.3974 | 803.094 | 1290.4
m1 = 0.5004 | 809.733 | 1293.1
m1 = 0.596 | 815.99 | 1295.6
m1 = 0.6972 | 822.595 | 1298.2

[Br-].[Li+] [lithium bromide] + CC(C)O
[2]
Settings | mass density [kg/m3] | speed of sound [m/s]
m1 = 0.0787 | 786.228 | 1142.6
m1 = 0.0957 | 787.379 | 1143.1
m1 = 0.1024 | 787.748 | 1143.3
m1 = 0.1387 | 790.137 | 1144.5
m1 = 0.1915 | 793.601 | 1146.2
m1 = 0.2503 | 797.348 | 1148.1
m1 = 0.3451 | 803.296 | 1150.9
m1 = 0.3951 | 806.427 | 1152.3
m1 = 0.4768 | 811.456 | 1154.5
m1 = 0.594 | 818.719 | 1157.7
m1 = 0.697 | 824.988 | 1160.3
m1 = 0.7757 | 829.74 | 1162.3
m1 = 0.9066 | 837.46 | 1165.4
m1 = 1.003 | 843.093 | 1167.7
m1 = 1.158 | 851.831 | 1170.5
m1 = 1.272 | 858.084 | 1173.5

[Br-].[Li+] [lithium bromide] + CO
[2]
Settings | mass density [kg/m3] | speed of sound [m/s]
m1 = 0.0425 | 789.48 | 1110.7
m1 = 0.0588 | 790.553 | 1111.3
m1 = 0.0714 | 791.384 | 1112
m1 = 0.0903 | 792.602 | 1112.8
m1 = 0.1168 | 794.333 | 1113.9
m1 = 0.1473 | 796.328 | 1115.1
m1 = 0.2089 | 800.289 | 1117.7
m1 = 0.2993 | 806.041 | 1121.1
m1 = 0.5035 | 818.761 | 1128.8
m1 = 0.7097 | 831.385 | 1136.2
m1 = 0.9875 | 848.253 | 1146.1
m1 = 1.163 | 858.424 | 1152
m1 = 1.464 | 876.582 | 1162.5
m1 = 1.97 | 905.481 | 1179.6
m1 = 2.45 | 933.222 | 1195.9
m1 = 3.489 | 989.847 | 1231.2

CC(=O)N(C)C [N,N-dimethylethanamide]
[1], 323.15 K
Settings | mass density [kg/m3] | speed of sound [m/s]
– | 913.129 | 1357.8
